Experimental data as given in patent publication US20110218215A1, “Compositions and Methods for Treating Social Anxiety” (priority 2010, published 2011).

Tested on: performance anxiety in the context of public speaking
Assay: Open clinical trial: oral doses taken before public speaking, subject self-reports
Type: in vivo, human
Settings: Subject 2, 40 mg propranolol HCl alone
Source text: Subjects were selected based on their history of experiencing performance anxiety in the context of public speaking. Subjects received oral doses of the present composition, as described below, at various times prior to speaking engagements. The parameters assessed included but were not limited to the following: tremor of voice and hands, urinary and/or fecal urgency, tachycardia, anxiety, and side effects (e.g., dry mouth).

Q: With `CC(C)NCC(O)COc1cccc2ccccc12.Cl` (racemic) [propranolol HCl, (RS)-1-(isopropylamino)-3-(1-naphthyloxy)propan-2-ol] as the compound, how does the fecal urgency (ninety minutes prior) read?
A: The fecal urgency was “did report fecal urgency”.

Q: And the quality of presentation (ninety minutes prior)?
A: The quality of presentation was “less colorful and confident presentation”.

Q: And the voice tremor (ninety minutes prior)?
A: Its voice tremor is “no tachycardia or voice tremor”.

Q: What about the tachycardia (ninety minutes prior to public speaking) of the same compound?
A: The tachycardia was “no tachycardia”.
